What was measured:
[1] = tested on: HLA-A3; experiment: Assembly assay for peptide binding to MHC class I molecules; settings: T2-A3 cells
[2] = tested on: T2-A3 cells; experiment: 51Cr-release cytotoxicity of T cell clone 9 against peptide-pulsed T2-A3 cells; format: cell-based; settings: peptide 10 μM; E:T ratios 9:1, 3:1, 1:1, 0,3:1; duplicates
[3] = tested on: HLA-A3+ melanoma cell line FM3; experiment: 51Cr-release cytotoxicity of clone 9 against FM3 melanoma cells; format: cell-based; settings: unlabeled T2-A3 cells pulsed with 10 μM peptide; inhibitor to target ratio 20:1; Fig. 4b, c

ILRGSVAHK [Influenza NP265–273, reference compound]
binding to HLA-A3 (in words) [1]: high affinity

RAGLQVRKNK [Rho1]
binding to HLA-A3 (in words) [1]: only bound very weakly to HLA-A3
lysis of peptide-pulsed T2-A3 cells by clone 9 [2]: effectively lysed

RLGLQVRKNK [Rho1L2]
binding to HLA-A3 (in words) [1]: bound with intermediate affinity
lysis of peptide-pulsed T2-A3 cells by clone 9 [2]: effectively lysed
cold target inhibition of FM3 killing by clone 9 [3]: completely abrogated the killing of FM3 melanoma cells

— paper PMC11030672 (Cancer Immunology, Immunotherapy : CII, 2008)
